{"source": "paper PMC9828224", "about": "“Expansion of the Catalytic Repertoire of Alcohol Dehydrogenases in Plant Metabolism” (Angewandte Chemie (International Ed. in English), 2022)", "key": {"GS": {"target": "T1, GS (Catharanthus roseus, UniProt W8JWW7)", "T1 construct": "construct details only in supplement", "T1 sequence (W8JWW7 2-364)": "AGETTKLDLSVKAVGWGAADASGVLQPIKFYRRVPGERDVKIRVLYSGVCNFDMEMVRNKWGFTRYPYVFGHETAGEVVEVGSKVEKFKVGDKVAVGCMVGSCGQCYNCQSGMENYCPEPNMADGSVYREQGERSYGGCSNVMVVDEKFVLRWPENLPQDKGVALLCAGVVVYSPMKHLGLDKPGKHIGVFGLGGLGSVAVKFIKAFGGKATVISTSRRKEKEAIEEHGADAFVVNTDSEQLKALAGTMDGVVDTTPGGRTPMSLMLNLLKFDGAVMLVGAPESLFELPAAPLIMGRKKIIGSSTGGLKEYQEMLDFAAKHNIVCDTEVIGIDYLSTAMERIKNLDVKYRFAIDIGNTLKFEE", "assay": "X-ray crystal structure of complex, […] Å", "assay_type": "binding", "settings": "active site; catalytic and structural zinc bound"}, "CrDPAS": {"target": "T2, CrDPAS (Catharanthus roseus, UniProt A0A1B1FHP3)", "T2 construct": "gene DPAS; construct details only in supplement; text prints PDB 8B26 for both CrDPAS and apo TiDPAS2", "T2 sequence (A0A1B1FHP3 1-365)": "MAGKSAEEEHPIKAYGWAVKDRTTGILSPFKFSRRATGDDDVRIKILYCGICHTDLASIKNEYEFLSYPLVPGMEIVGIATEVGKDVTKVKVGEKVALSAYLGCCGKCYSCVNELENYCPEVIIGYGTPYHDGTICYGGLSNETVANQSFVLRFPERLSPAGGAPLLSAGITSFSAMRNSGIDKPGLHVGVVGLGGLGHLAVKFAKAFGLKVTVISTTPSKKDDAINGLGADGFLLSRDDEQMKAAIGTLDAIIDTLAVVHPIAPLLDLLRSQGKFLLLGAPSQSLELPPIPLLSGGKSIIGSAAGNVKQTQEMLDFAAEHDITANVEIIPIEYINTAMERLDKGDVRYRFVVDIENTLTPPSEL", "assay": "enzymatic turnover, products by MS and NMR with deuterated cofactor", "assay_type": "biochemical", "settings": "NADPH or 4-pro-R-NADPD; 1,4-iminium reduction"}}, "data": [{"smiles": "NC(=O)c1ccc[n+]([C@@H]2O[C@H](COP(=O)(O)OP(=O)(O)OC[C@H]3O[C@@H](n4cnc5c(N)ncnc54)[C@H](OP(=O)(O)O)[C@@H]3O)[C@@H](O)[C@H]2O)c1", "note": "[NADP+]", "values": [{"measurement": "X-ray crystal structure of complex, 2.00 Å", "setting": "GS", "value": "Active site of GS co‐crystallised with NADP^+"}]}, {"smiles": "C/C=C1/C=[N+]2CCc3c([nH]c4ccccc34)[C@@](COC(C)=O)(C(=O)OC)[C@H]1CC2", "note": "[precondylocarpine acetate]", "values": [{"measurement": "enzymatic turnover, products by MS and NMR with deuterated cofactor", "setting": "CrDPAS", "value": "we observed product formation when only DPAS and NADPH is incubated with precondylocarpine acetate"}]}]}
